Measurements: patent US12031160B2, “Method for the production of glufosinate-ammonium” (ZHEJIANG UNIVERSITY OF TECHNOLOGY, priority 2018, dated 2024)

Experiments:
[1] = molecular target: Pseudomonas moorei glufosinate-ammonium dehydrogenase E3 (SEQ ID NO: 6) variant PPTGDH-L107R-F188P-G239K-F357G, SEQ ID NO: 9 (Pseudomonas moorei, UniProt A0A1H1HZ48, F188P/F357G/G239K/L107R); experiment: Kinetic parameters of purified mutant PPTGDH-L107R-F188P-G239K-F357G
Protocol: (§1) 1. […] The mutant proteins were purified by Ni-NTA column(1.6×10 cm, Bio-Rad, the USA), and the specific operations were carried out as follows: (1)equilibrate a Ni-NTA column with 5 column volumes of a binding buffer(pH 8.0, 50 mM sodium phosphate buffer containing 0.3 M NaCl) until the baseline is steady; (2)load the sample with a flow rate of 1 mL/min with the amount of the loading sample of 25-40 mg/mL, thereby attaching the target protein to the Ni-NTA column; (3)wash the column with 6 column volumes of buffer A (pH 8.0, 50 mM sodium phosphate buffer containing 0.3 M NaCl and 30 mM imidazole) at a flow rate of 1 mL/min until the baseline is steady; (4)wash the column with buffer B (pH 8.0, 50 mM sodium phosphate buffer containing 0.3 M NaCl and 500 mM imidazole) at a flow rate of 1 mL/min, collect the target protein and dialyze overnight in a pH 7.5, 20 mM phosphate buffer, thereby obtaining the pure glufosinate-ammonium dehydrogenase; and (5)wash the Ni-NTA column with 5 column volumes of a binding buffer(pH 8.0, 50 mM sodium phosphate buffer containing 0.3 M NaCl) until the baseline is steady, and store the Ni-NTA column in 5 column volumes of ultrapure water containing 20% ethanol.

[2] = molecular target: Pseudomonas moorei glufosinate-ammonium dehydrogenase E3 (PPTGDH, PPTGDHE3, WP_090325311.1), wild type, SEQ ID NO: 6 (Pseudomonas moorei, UniProt A0A1H1HZ48); experiment: Kinetic parameters of purified original glufosinate-ammonium dehydrogenase PPTGDH; conditions: pH 7.4, 35° C.
Protocol: as §1

Which results are given for `CP(=O)(O)CCC(=O)C(=O)O` [PPO, 2-carbonyl-4-[(hydroxy)(methyl)phosphinoyl]-butyric acid]?
catalytic efficiency kcat/Km^B (PPO), times higher than that of the original enzyme ([1]; mutant vs original enzyme): 22.19 times; kcat/Km^B (PPO) ([1]; pH 7.4, 35° C.): 337730 M⁻¹ s⁻¹; kcat/Km^B (PPO) [2]: 15220 M⁻¹ s⁻¹

What does the source list for `NC(=O)C1=CN([C@@H]2O[C@H](COP(=O)(O)OP(=O)(O)OC[C@H]3O[C@@H](n4cnc5c(N)ncnc54)[C@H](OP(=O)(O)O)[C@@H]3O)[C@@H](O)[C@H]2O)C=CC1` [NADPH]?
catalytic efficiency for the coenzyme NADPH, times higher than that of the original enzyme ([1]; mutant vs original enzyme): 34.61 times; kcat/Km^A (NADPH) ([1]; pH 7.4, 35° C.): 1.3703e+07 M⁻¹ s⁻¹
